Laboratory results from ChEMBL document CHEMBL1121781, “Potential antitumor agents. 34. Quantitative relationships between DNA binding and molecular structure for 9-anilinoacridines substituted in the anilino ring” (J Med Chem, 1981).
Active and inactive are the calls of the source. The rule behind the calls is not given here.

Key:
[1] = species on record: Mus musculus
Description: Maximum percent increase in life span of mice

[2] = tested on: Nucleic Acid
Description: Association constant for binding to poly [d(A-T)]

[3] = tested on: Nucleic Acid; remark: listed apart in the source
Description: Association constant for binding to poly [d(G-C)]

[4] = tested on: Calf thymus DNA; conditions: Bos taurus
Description: Inhibitory concentration against ethidium binding to DNA

[5] = physchem
Description: Ionisation constant (pKa)

SMILES	ILS [1]	Log K [2]	Log K [3]	C50 [4] [µM]	pKa [5]
CS(=O)(=O)c1ccc(Nc2c3ccccc3nc3ccccc23)cc1	inactive	5.86	5.88	14	5.81
O=S(=O)(Nc1ccc(Nc2c3ccccc3nc3ccccc23)cc1)c1ccccc1	–	6.2	6.23	5.7	7.09
O=[N+]([O-])c1ccc(Nc2c3ccccc3nc3ccccc23)cc1	inactive	5.48	5.69	19	–
CN(c1ccc(Nc2c3ccccc3nc3ccccc23)cc1)S(C)(=O)=O	–	5.89	6	9.9	–
CNC(=O)Nc1ccc(Nc2c3ccccc3nc3ccccc23)cc1	–	–	–	4.1	7.77
CN(C)c1ccc(Nc2c3ccccc3nc3ccccc23)cc1	–	6.51	6.29	2	8.46
Brc1ccccc1Nc1c2ccccc2nc2ccccc12	inactive	5.35	5.32	58	6.41
CC(=O)c1ccc(Nc2c3ccccc3nc3ccccc23)cc1	inactive	5.87	5.89	14	6.12
Oc1cccc(Nc2c3ccccc3nc3ccccc23)c1	inactive	6	6.1	8.2	7.3
CC(C)(C)c1ccccc1Nc1c2ccccc2nc2ccccc12	inactive	5.23	5.09	100	7.62
O=[N+]([O-])c1ccccc1Nc1c2ccccc2nc2ccccc12	inactive	5.36	5.49	36	–
Ic1ccc(Nc2c3ccccc3nc3ccccc23)cc1	inactive	6.19	6.13	8.2	6.9
Oc1ccc(Nc2c3ccccc3nc3ccccc23)cc1	–	6.28	6.21	5.1	7.91
CS(=O)(=O)Nc1cccc(Nc2c3ccccc3nc3ccccc23)c1	–	–	5.86	15	–
Nc1ccccc1Nc1c2ccccc2nc2ccccc12	inactive	5.76	5.76	13	7.87
Clc1ccc(Nc2c3ccccc3nc3ccccc23)cc1	inactive	5.99	5.91	14	7.06
COC(=O)Nc1ccccc1Nc1c2ccccc2nc2ccccc12	inactive	5.56	5.78	17	7.24
CCCNc1ccc(Nc2c3ccccc3nc3ccccc23)cc1	inactive	6.35	6.28	2	8.25
Cc1ccc(Nc2c3ccccc3nc3ccccc23)cc1	–	5.99	5.99	10	7.72
Fc1ccccc1Nc1c2ccccc2nc2ccccc12	inactive	5.59	5.65	27	6.84
Ic1ccccc1Nc1c2ccccc2nc2ccccc12	inactive	5.33	5.27	126	6.47

SMILES	ILS [1]	Log K [2]	Log K [3]	C50 [4] [µM]	pKa [5]
CS(=O)(=O)Nc1ccc(Nc2c3ccccc3nc3ccccc23)cc1	–	–	–	8.9	–
CS(=O)(=O)NCc1ccccc1Nc1c2ccccc2nc2ccccc12	inactive	5.6	5.39	46	7.17
CCCCCCNc1ccc(Nc2c3ccccc3nc3ccccc23)cc1	inactive	6.43	6.38	1.6	8.24
CCNc1ccc(Nc2c3ccccc3nc3ccccc23)cc1	–	6.44	6.36	1.7	8.3
NS(=O)(=O)c1ccc(Nc2c3ccccc3nc3ccccc23)cc1	inactive	5.96	5.92	14	–
CC(=O)Nc1ccc(Nc2c3ccccc3nc3ccccc23)cc1	–	–	–	4.7	7.51
NC(=O)c1ccccc1Nc1c2ccccc2nc2ccccc12	inactive	5.37	5.43	38	–
Cc1cccc(Nc2c3ccccc3nc3ccccc23)c1	inactive	6.09	5.9	15	7.52
COC(=O)c1ccccc1Nc1c2ccccc2nc2ccccc12	inactive	5.47	5.41	40	6.3
CCOc1ccccc1Nc1c2ccccc2nc2ccccc12	inactive	5.2	5.08	85	7.85
Nc1ccc(S(=O)(=O)Nc2ccc(Nc3c4ccccc4nc4ccccc34)cc2)cc1	–	6.3	6.26	4.4	7.15
O=[N+]([O-])c1cccc(Nc2c3ccccc3nc3ccccc23)c1	inactive	5.56	5.62	27	6.26
Brc1ccc(Nc2c3ccccc3nc3ccccc23)cc1	inactive	6.02	5.98	11	7
NS(=O)(=O)c1ccccc1Nc1c2ccccc2nc2ccccc12	inactive	5.67	5.77	18	–
COc1ccc(Nc2c3ccccc3nc3ccccc23)cc1	inactive	6.12	6.08	7.4	7.94
Nc1ccc(Nc2c3ccccc3nc3ccccc23)cc1	–	6.31	6.23	2.3	8.36
CS(=O)(=O)Nc1ccccc1Nc1c2ccccc2nc2ccccc12	inactive	5.49	6.1	7.3	6.86
c1ccc(Nc2c3ccccc3nc3ccccc23)cc1	inactive	5.86	5.85	16	7.46
Oc1ccccc1Nc1c2ccccc2nc2ccccc12	inactive	5.36	5.42	39	7.8
CNc1cccc(Nc2c3ccccc3nc3ccccc23)c1	inactive	6.11	6.01	7	7.61
CNS(=O)(=O)c1ccc(Nc2c3ccccc3nc3ccccc23)cc1	inactive	5.82	5.85	16	6.02

SMILES	ILS [1]	Log K [2]	Log K [3]	C50 [4] [µM]	pKa [5]
COc1ccccc1Nc1c2ccccc2nc2ccccc12	–	5.5	5.47	34	7.74
CC(C)c1ccccc1Nc1c2ccccc2nc2ccccc12	inactive	5.08	4.92	142	7.64
CN(c1ccccc1Nc1c2ccccc2nc2ccccc12)S(C)(=O)=O	inactive	5.08	5.46	37	6.97
O=C(Nc1ccc(Nc2c3ccccc3nc3ccccc23)cc1)c1ccccc1	–	6.2	6.14	5.4	7.39
Nc1cccc(Nc2c3ccccc3nc3ccccc23)c1	–	6.11	6.01	8.6	7.58
CNc1ccc(Nc2c3ccccc3nc3ccccc23)cc1	–	6.55	6.54	1.2	8.42
CC(=O)Nc1ccccc1Nc1c2ccccc2nc2ccccc12	inactive	5.84	5.46	42	7.24
Clc1cccc(Nc2c3ccccc3nc3ccccc23)c1	inactive	6.02	6.02	11	6.76
CCCCNc1ccc(Nc2c3ccccc3nc3ccccc23)cc1	inactive	6.45	6.39	1.6	8.24
COC(=O)Nc1ccc(Nc2c3ccccc3nc3ccccc23)cc1	–	–	6.23	5.3	7.64
COC(=O)c1ccc(Nc2c3ccccc3nc3ccccc23)cc1	–	5.88	5.86	15	–
CC(=O)Nc1cccc(Nc2c3ccccc3nc3ccccc23)c1	–	5.9	5.96	13	7.16
Clc1ccccc1Nc1c2ccccc2nc2ccccc12	inactive	5.39	5.47	41	6.55
c1ccc(Nc2c3ccccc3nc3ccccc23)nc1	inactive	5.6	5.43	42	6.32
NC(=O)c1ccc(Nc2c3ccccc3nc3ccccc23)cc1	inactive	5.83	5.77	18	–
COc1cccc(Nc2c3ccccc3nc3ccccc23)c1	inactive	5.86	5.91	14	7.21
c1cncc(Nc2c3ccccc3nc3ccccc23)c1	inactive	5.75	5.96	13	6.46
O=C(Nc1ccccc1)Nc1ccc(Nc2c3ccccc3nc3ccccc23)cc1	–	6.37	6.3	3.8	7.67
CCc1ccccc1Nc1c2ccccc2nc2ccccc12	inactive	5.18	5.15	83	7.68
